Assay results reported in article PMC5547389, “Structure-activity relationships and molecular docking studies of chromene and chromene based azo chromophores: A novel series of potent antimicrobial and anticancer agents” (EXCLI Journal, 2017).
Values after ≈ are worked out from the molar mass of the structure shown.

Columns and labels:
[1] = test system: Human colon carcinoma (HCT-116); assay: Cytotoxic screening; format: cell-based; conditions: HCT-116; for IC50: Homo sapiens, read-out: IC50 HCT-116
Procedure: (§1) Human colon carcinoma (HCT-116), human hepatocellular carcinoma (HEPG-2), adenocarcinomic human alveolar basal epithelial cell (A-549), and human breast adenocarcinoma (MCF-7) cell lines were obtained from the American Type Culture Collection (ATCC, Rockville, MD). The cells were grown on RPMI-1640 medium supplemented with 10 % inactivated fetal calf serum and 50 µg/ml gentamycin. The cells were maintained at 37 °C in a humidified atmosphere with 5 % CO2 and were subcultured two to three times a week. Potential cytotoxicity of the compounds was evaluated on tumor cells using the method of Gangadevi and Muthumary (2007[21]) (Klancnik et al., 2010[36]). The cells were grown as monolayers in growth RPMI-1640. The monolayers of 104 cells adhered at the bottom of the wells in a 96-well microtiter plate incubated for 24 h at 37 °C in a humidified incubator with 5 % CO2. The monolayers were then washed with sterile phosphate buffered saline (0.01 M pH 7.2) and simultaneously the cells were treated with 100 µL from different dilutions of tested sample in fresh maintenance medium and incubated at 37 °C. A control of untreated cells was made in the absence of tested sample. Positive controls containing doxorubicin were also tested as a reference drug for comparison. Six wells were used for each concentration of the test sample. Every 24 hours an observation under the inverted microscope was made. The number of the surviving cells was determined by staining the cells with crystal violet (Mosmann, 1983[42]; Gangadevi and Muthumary, 2007[21]) followed by cell lysing using 33 % glacial acetic acid and reading the absorbance at 590 nm using microplate reader (SunRise, TECAN, Inc, USA) after well mixing. The absorbance values from untreated cells were considered as 100 % proliferation. The number of viable cells was determined using microplate reader as previously mentioned before and the percentage of […] was calculated as [1-(ODt/ODc)] x 100 % where ODt is the mean optical density of wells treated with the tested sample and ODc is the mean optical density of untreated cells. The relation between surviving cells and drug concentration was plotted to get the survival curve of each tumor cell line after treatment with the specified compound. The 50 % inhibitory concentration (IC50), the concentration required to cause toxic effects in 50 % of intact cells, was estimated from graphic plots.
(§2) The in vitro cytotoxic activity was performed by MTT assay (Mosmann, 1983[42]; Alley et al., 1988[6]) against three human carcinoma cell lines: Human colon carcinoma (HCT-116), human breast adenocarcinoma (MCF-7), and human hepatocellular carcinoma (HEPG-2).

[2] = test system: human breast adenocarcinoma (MCF-7); assay: Cytotoxic screening; format: cell-based; conditions: for IC50: Homo sapiens, MCF7, read-out: IC50 MCF-7
Procedure: as §1, §2

[3] = test system: human hepatocellular carcinoma (HEPG-2); assay: Cytotoxic screening; format: cell-based; conditions: HepG2, read-out: IC50 HepG-2
Procedure: as §1, §2

[4] = test system: Syncephalastrum racemosum (RCMB 05922); assay: Well diffusion assay (inhibition zone); format: cell-based; conditions: RCMB05922, 5 mg/mL in DMSO, fungi, read-out: Inhibition Zone (IZ) diameter, S.R
Procedure: (§3) The microorganism inoculums were uniformly spread using sterile cotton swabs on a sterile Petri dish malt extract agar (for fungi) and nutrient agar (for bacteria). One hundred cubic millimeters of each sample was added to each well (10 mm-diameter holes were cut in the agar gel, 20 mm apart from one another). The systems were incubated for 24-48 h at 37 °C (for bacteria) and at 28 °C (for fungi). After incubation, the microorganism growth was observed. Inhibition zones of the bacterial and fungal growth were measured in millimeters. Tests were performed in triplicate (Cappuccino and Sherman, 1999[12]; Vanden Berghe and Vlientinck, 1991[62]).
(§4) All the newly synthesized compounds described in this report were screened for both antibacterial and antifungal activity via the reported agar diffusion well method (Vanden Berghe and Vlietinck, 1991[62]). The inhibition zones and minimum inhibitory concentrations (MIC) were determined by the serial dilution method (Cappuccino and Sherman, 1999[12]). The antimicrobial activity of the synthesized compounds was tested against a broad panel of microorganisms including two Gram-positive bacteria: Streptococcus pneumoniae (RCMB 010010) and Bacillus subtilis (RCMB 010067), two Gram-negative bacteria: Pseudomonas aeruginosa (RCMB 010043) and Escherichia coli (RCMB 010052), and four fungi: Aspergillus fumigatus (RCMB 02568), Syncephalastrum racemosum (RCMB 05922), Geotricum candidum (RCMB 05097), and Candida albicans (RCMB 05036). Ampicillin, ciprofloxacin, gentamicin and amphotericin B were used as positive control drugs (Atta-ur-Rahman and Thomsen, 2001[7]; Smania et al., 1999[57]). […] While in the case of Gm-ve bacteria, they had weak activity. In addition, certain strains of fungi were sensitive to tested compounds with an IZ range from 12-25 except Candida albicans.

[5] = test system: Geotricum candidum (RCMB 05097); assay: Well diffusion assay (inhibition zone); format: cell-based; conditions: 5 mg/mL in DMSO; fungi; read-out: Inhibition Zone (IZ) diameter, G.C
Procedure: as §3, §4

[6] = test system: Aspergillus fumigatus (RCMB 02568); assay: Well diffusion assay (inhibition zone); format: cell-based; conditions: RCMB02568, 5 mg/mL in DMSO, fungi, read-out: Inhibition Zone (IZ) diameter, A.F
Procedure: as §3, §4

[7] = test system: Bacillus subtilis (RCMB 010067); assay: Well diffusion assay (inhibition zone); format: cell-based; conditions: RCMB010067, 5 mg/mL in DMSO, Gm+ve, read-out: Inhibition Zone (IZ) diameter, B.S
Procedure: as §3, §4

[8] = test system: Streptococcus pneumoniae (RCMB 010010); assay: Well diffusion assay (inhibition zone); format: cell-based; conditions: RCMB010010, 5 mg/mL in DMSO, Gm+ve, read-out: Inhibition Zone (IZ) diameter, S.P
Procedure: as §3, §4

[9] = test system: Escherichia coli (RCMB 010052); assay: Well diffusion assay (inhibition zone); format: cell-based; conditions: RCMB010052, 5 mg/mL in DMSO, Gm-ve, read-out: Inhibition Zone (IZ) diameter, E.C
Procedure: as §3, §4

SMILES	melting point	IC50 [1]	IC50 [2]	IC50 [3]	zone of inhibition at 5000 µg/mL [4]	zone of inhibition at 5000 µg/mL [5]	zone of inhibition at 5000 µg/mL [6]	zone of inhibition at 5000 µg/mL [7]	zone of inhibition at 5000 µg/mL [8]	zone of inhibition at 5000 µg/mL [9]	IC50 HCT-116 [1]	IC50 MCF-7 ([2]; MCF-7)
N#CC1=C(N)Oc2c(N)cc3ccccc3c2C1c1ccc(Cl)cc1Cl (stereo not shown) [4e, 3,5-Diamino-1-(2,4-dichloro-phenyl)-1H-benzo[f]chromene-2-carbonitrile]	278 °C	2 µg/mL (≈ 5.23 µM)	1.5 µg/mL (≈ 3.92 µM)	1 µg/mL (≈ 2.62 µM)								
N#CC1=C(N)Oc2c(N)cc3ccccc3c2C1c1ccc(F)cc1F (stereo not shown) [4f, 3,5-Diamino-1-(2,4-difluoro-phenyl)-1H-benzo[f]chromene-2-carbonitrile]	282 °C	9.25 µg/mL (≈ 26.5 µM)	6.38 µg/mL (≈ 18.3 µM)	5.22 µg/mL (≈ 14.9 µM)								
COc1cccc2c1C(=O)c1c(O)c3c(c(O)c1C2=O)C[C@@](O)(C(=O)CO)C[C@@H]3O[C@H]1C[C@H](N)[C@H](O)[C@H](C)O1 [Doxorubicin, reference compound]		0.88 µg/mL (≈ 1.62 µM)	1.02 µg/mL (≈ 1.88 µM)	1.19 µg/mL (≈ 2.19 µM)								
COc1cc(C2C(C#N)=C(N)Oc3c(N)cc4ccccc4c32)cc(OC)c1OC (stereo not shown) [4h, 3,5-Diamino-1-(3,4,5-trimethoxy-phenyl)-1H-benzo[f]chromene-2-carbonitrile]	225 °C	500 µg/mL (≈ 1240 µM)	500 µg/mL (≈ 1240 µM)	500 µg/mL (≈ 1240 µM)								
N#CC1=C(N)Oc2c(N)cc3ccccc3c2C1c1ccsc1 (stereo not shown) [4i, 3,5-Diamino-1-thiophen-3-yl-1H-benzo[f]chromene-2-carbonitrile]	230 °C	500 µg/mL (≈ 1570 µM)	386 µg/mL (≈ 1210 µM)	188 µg/mL (≈ 589 µM)								
CC[C@]1(O)C[C@@H]2CN(CCc3c([nH]c4ccccc34)[C@@](C(=O)OC)(c3cc4c(cc3OC)N(C)[C@H]3[C@@](O)(C(=O)OC)[C@H](OC(C)=O)[C@]5(CC)C=CCN6CC[C@]43[C@@H]65)C2)C1 [Vinblastine, reference compound]		2.6 µg/mL (≈ 3.21 µM)	6.1 µg/mL (≈ 7.52 µM)	4.6 µg/mL (≈ 5.67 µM)								
O=c1[nH]cc(F)c(=O)[nH]1 [5-Flurouracil, reference compound]											4.3 µg/mL (≈ 33.1 µM)	3.9 µg/mL (≈ 30 µM)
N#CC1=C(N)Oc2c(ccc3c(N)cccc23)C1c1cccs1 (stereo not shown) [7e, 2,7-Diamino-4-thiophen-2-yl-4H-benzo[h]chromene-3-carbonitrile]	232 °C	39.9 µg/mL (≈ 125 µM)	61.9 µg/mL (≈ 194 µM)	33.2 µg/mL (≈ 104 µM)	14.2 mm	16.9 mm	16.4 mm	18.2 mm	16.3 mm	15.2 mm		
CC(C)(C)c1ccc(C2C(C#N)=C(N)Oc3c2ccc2c(N)cccc32)cc1 (stereo not shown) [7a, 2,7-Diamino-4-(4-tert-butyl-phenyl)-4H-benzo[h]chromene-3-carbonitrile]	210 °C	14.3 µg/mL (≈ 38.7 µM)	17.5 µg/mL (≈ 47.4 µM)	11.9 µg/mL (≈ 32.2 µM)	14.1 mm	15.8 mm	15.4 mm	16.9 mm	16.1 mm	13.8 mm		
N#CC1=C(N)Oc2c(N)cc3ccccc3c2C1c1cccc(C(F)(F)F)c1F (stereo not shown) [4g, 3,5-Diamino-1-(2-fluoro-3-trifluoromethyl-phenyl)-1H-benzo[f]chromene-2-carbonitrile]	202 °C	30 µg/mL (≈ 75.1 µM)	53.5 µg/mL (≈ 134 µM)	32.4 µg/mL (≈ 81.1 µM)								

The next lines start with results.

melting point	SMILES	IC50 [1]	IC50 [2]	IC50 [3]	zone of inhibition at 5000 µg/mL [4]	zone of inhibition at 5000 µg/mL [5]	zone of inhibition at 5000 µg/mL [6]	zone of inhibition at 5000 µg/mL [7]	zone of inhibition at 5000 µg/mL [8]	zone of inhibition at 5000 µg/mL [9]	IC50 HCT-116 [1]	IC50 MCF-7 ([2]; MCF-7)
275 °C	CCCCc1ccc(C2C(C#N)=C(N)Oc3cc(O)c(N=Nc4ccc(S(=O)(=O)O)cc4)cc32)cc1 (stereo not shown) [13h, 4-[2-Amino-4-(4-butyl-phenyl)-3-cyano-7-hydroxy-4H-chromen-6-ylazo]-benzenesulfonic acid]	88.6 µg/mL (≈ 176 µM)	44.6 µg/mL (≈ 88.4 µM)	40.4 µg/mL (≈ 80.1 µM)	13.6 mm	15.8 mm	12.1 mm	16.3 mm	15.3 mm	13.9 mm		
290 °C	N#CC1=C(N)Oc2cc(O)c(N=Nc3ccc(S(=O)(=O)O)cc3)cc2C1c1ccccc1F (stereo not shown) [13f, 4-[2-Amino-3-cyano-4-(2-fluoro-phenyl)-7-hydroxy-4H-chromen-6-ylazo]-benzenesulfonic acid]	100 µg/mL (≈ 214 µM)	79.8 µg/mL (≈ 171 µM)	68.4 µg/mL (≈ 147 µM)	11.6 mm	13.4 mm	10.3 mm	13.4 mm	10.6 mm	12.1 mm		
203 °C	Cc1ccc(N=Nc2cc3c(cc2O)OC(N)=C(C#N)C3c2ccc(F)cc2)cc1 (stereo not shown) [13a, 2-Amino-4-(4-fluoro-phenyl)-7-hydroxy-6-p-tolylazo-4H-chromene-3-carbonitrile]				17.3 mm	21.4 mm	20.4 mm	23.7 mm	19.6 mm	14.4 mm		
330 °C	CC(C)(C)c1ccc(C2C(C#N)=C(N)Oc3cc(O)c(N=Nc4ccc(S(=O)(=O)O)cc4)cc32)cc1 (stereo not shown) [13g, 4-[2-Amino-4-(4-tert-butyl-phenyl)-3-cyano-7-hydroxy-4H-chromen-6-ylazo]-benzenesulfonic acid]	100 µg/mL (≈ 198 µM)	92.6 µg/mL (≈ 184 µM)	81.3 µg/mL (≈ 161 µM)	15.2 mm	17.1 mm	14.3 mm	16.1 mm	15.2 mm	13.6 mm		
254 °C	N#CC1=C(N)Oc2cc(O)c(N=Nc3ccc([N+](=O)[O-])cc3)cc2C1c1ccc(F)cc1 (stereo not shown) [13c, 2-Amino-4-(4-fluoro-phenyl)-7-hydroxy-6-(4-nitro-phenylazo)-4H-chromene-3-carbonitrile]	12.2 µg/mL (≈ 28.3 µM)	10.8 µg/mL (≈ 25 µM)	10.4 µg/mL (≈ 24.1 µM)	10.4 mm		13.6 mm	14.3 mm	14.6 mm	9.4 mm		
